System: HSP70
Assay: HSP70 protein expression inducing activity in HeLa cells (ELISA)
Format: cell-based, human
Conditions: final concentration 1 mg/mL, 24 hours
Experimental: The HSP70 inducing activity of the samples 1, 3, and 4 which were the same ones as used in Example 4 was evaluated by measuring an HSP70 protein expression level. In the same manner as described in Example 4, HeLa cells that had been suspended in DMEM (added with 10% FBS) were seeded in a 12-well plate (100,000 cells/mL/well). […] A part of the cells were then scraped off with a cell scraper, collected into a 1.5 mL sample tube, and subjected to HSP70 protein quantification and total protein quantification. The quantification of HSP70 protein was carried out using HSP70 ELISA kit (product name) (manufactured by Enzo); and the quantification of total protein was carried out using Micro BCA Protein Assay Reagent kit (product name) (manufactured by PIERCE Biotechnology). With regard to the remaining cells, an effect on cell proliferation was evaluated by 3-(4,5-dimethyl […])-2,5-diphenyltetrazalium bromide (MTT) method. […]

`O=Cc1ccc(CO)o1` [sample 1, 5-Hydroxymethyl-2-furaldehyde] was tested, and the “increased HSP70 protein expression as compared with the control” value was “about 1.3 fold”.

— patent US9610279B2, “Method for induction of a heat shock protein, anti-stress or regulation of an autonomic nerve” (AMINO UP CHEMICAL CO., LTD., priority 2011, dated 2017)
